# In PubChem BioAssay (NCI):
#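 The compound was tested at five concentrations on cells cultured in 96-well plates, with a 48-hour exposure period. Abbreviation: GI50, concentration required for 50% inhibition of growth. TGI is the concentration that stops growth completely.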
# Tests used:
# Test in all cases: DTP human tumour cell line panel, 48 h
# A549 NSCLC = test system: A549 NSCLC
# CAKI-1 renal = test system: CAKI-1 renal
# LOX IMVI melanoma = test system: LOX IMVI melanoma
# MCF7 breast = test system: MCF7 breast
# NCI-H522 lung = test system: NCI-H522 lung
# RPMI-8226 leukemia = test system: RPMI-8226 leukemia
# SF-268 CNS = test system: SF-268 CNS
# SF-295 CNS = test system: SF-295 CNS
# SNB-75 CNS = test system: SNB-75 CNS
# SR leukemia = test system: SR leukemia
SMILES,GI50 (A549 NSCLC) [µM],TGI (A549 NSCLC) [µM],GI50 (CAKI-1 renal) [µM],TGI (CAKI-1 renal) [µM],GI50 (LOX IMVI melanoma) [µM],TGI (LOX IMVI melanoma) [µM],GI50 (MCF7 breast) [µM],TGI (MCF7 breast) [µM],GI50 (NCI-H522 lung) [µM],TGI (NCI-H522 lung) [µM],GI50 (RPMI-8226 leukemia) [µM],TGI (RPMI-8226 leukemia) [µM],GI50 (SF-268 CNS) [µM],TGI (SF-268 CNS) [µM],GI50 (SF-295 CNS) [µM],TGI (SF-295 CNS) [µM],GI50 (SNB-75 CNS) [µM],TGI (SNB-75 CNS) [µM],GI50 (SR leukemia) [µM],TGI (SR leukemia) [µM]
COC(=O)Nc1nc2ccc(S(=O)(=O)c3ccc(NC(=O)Nc4cc(C(F)(F)F)ccc4F)cc3)cc2[nH]1,> 25,> 25,> 25,> 25,> 25,> 25,> 25,> 25,> 25,> 25,> 25,> 25,> 25,> 25,> 25,> 25,> 25,> 25,> 25,> 25
O=[N+]([O-])c1cc2c(ccc3occc32)o1,3.21,12.4,1.87,4.57,1.25,3.85,0.701,21.2,1.67,4.45,4,44.3,2.21,12.8,2.04,5.75,3.08,53.9,2,9.64
CN(C)c1ncnc2c1ccn2C1OC(CO)C(O)C1O (centres undefined),13.6,> 100,1.58,> 39.8,0.559,12.2,0.115,7.32,> 100,> 100,5.88,> 71.4,3.63,> 100,6.48,> 100,1.64,22.5,13.8,> 100
CCCCN(CCCC)CCC(O)c1cc2ccc(C(F)(F)F)cc2c2cc(C(F)(F)F)ccc12 (centres undefined),3.12,12.1,2.61,9.01,1.66,3.63,1.62,3.74,1.79,3.54,2.28,6.17,4.98,18.3,5.18,18,3.46,15,1.61,6.41
CCCC(CCC)C(=O)OCC1(CO)C/C(=C\c2ccc(C(F)(F)F)cc2)C(=O)O1 (centres undefined),5.69,26.3,6.16,21.2,10,22.8,17.4,33.9,15.1,31.4,10.7,26.9,16.2,33.3,2.44,17.7,12.1,26.8,14.9,31.1
CNc1ncc2cc(Oc3ccc(F)cc3F)c(=O)n(C)c2n1,> 25,> 25,> 25,> 25,> 25,> 25,> 25,> 25,> 25,> 25,> 25,> 25,> 25,> 25,> 25,> 25,9.33,> 25,> 25,> 25
CCC(=O)c1c(C(F)(F)F)n([O-])c2ccccc2[n+]1=O,2.3,11.4,1.54,6.03,1.39,3.38,1.08,6.72,2.36,> 21.4,0.694,3.69,1.22,6.34,1.59,7.29,3.79,24.8,0.193,10.3
CC1=NN(C(=O)c2nn(-c3ccc(Cl)cc3)cc2O)C(=O)C1,2.92,> 100,1.89,26.4,2.66,> 100,4.65,> 100,1.44,> 86.5,1.07,> 88.9,0.632,> 100,0.285,–,0.532,> 100,0.419,7.97
COc1ccc2c(c1)C=C1CSCC3=Cc4cc(OC)ccc4OC13O2,0.492,> 100,0.41,> 100,0.656,> 100,0.313,> 100,0.232,0.937,0.368,> 34.4,2.86,> 100,0.316,> 100,0.183,0.598,0.164,> 100
O=CN1N=C(c2ccc(Nc3ccnc4cc(Cl)ccc34)cc2)CC1c1ccc(Cl)cc1 (centres undefined),0.992,> 100,0.409,> 100,0.599,> 100,0.48,> 100,0.386,30.2,–,–,0.847,> 100,0.274,1.08,–,–,0.324,> 100
O=C1NC(c2ccccc2)N=C2Oc3ccccc3C=C12 (centres undefined),–,> 100,–,0.42,–,> 31.6,–,> 100,–,> 100,–,> 100,–,> 84.7,–,> 100,–,–,–,> 100
